Laboratory results published in patent publication US11674951B2, “Methods for identifying a treatment for rheumatoid arthritis” (The Brigham and Women's Hospital, Inc., priority 2017, dated 2023).
Where “and” joins values, the source holds several entries; their conditions need not be identical. Equal values may be shown once.

Tests used:
[1] = tested on: PTPN22 transcripts in PBMC; assay: Anti-CD3 antibody induced PTPN22 transcript level in PBMC in absence or presence of drug (RT-PCR, drug/no-drug ratio); type: cell-based, human; conditions: anti-CD3 2.5 ug/ml, 24 hours
Description: PBMCs (1 million cells) of these subjects that were collected before the treatment were stimulated in vitro with anti-CD3 antibodies (2.5 ug/ml) in the absence or presence of corresponding drug (etanercept 250 ug/ml, adalimumab 100 ug/ml) for 24 hours. PBMC from subject BW34 was tested separately with etancercept and adalimumab. RNA was harvested from the stimulated cells and the level of PTPN22 transcripts was quantified with RT-PCR.
The PTPN22 level from cells stimulated in the presence of drug was then divided by the level obtained from cells stimulated in the absence of drug. This drug/no-drug ratio calculated from the 9 drug responders ranged from 1.67 to 2.5, whereas the ratio calculated from the 6 drug non-responders ranged from 0.86 to 1.35 (FIG. 4 and Table 1). […]

active RA patients = assay: Clinical response of active RA patients (CPIRA study) by Clinical Disease Activity Index (CDAI); type: in vivo, human; parameters: key to 2nd visit CDAI / ΔCDAI: CDAI = SJC(28)+TJC(28)+PGA+EGA; PGA/EGA on 1-10, 10 = maximal activity; conditions: for ΔCDAI: 1st visit minus 2nd visit CDAI; for 2nd visit CDAI: 12 weeks after the treatment started; for number of treated subjects who did not respond (CDAI definition) / number of treated subjects who responded (CDAI definition): seven CPIRA subjects treated per drug
Description: The Clinical Disease Activity Index (CDAI) is a useful clinical composite score for patients with rheumatoid arthritis. In some embodiments, it can be determined by the following formula: CDAI=SJC(28)+TJC(28)+PGA+EGA, wherein SJC(28) is Swollen 28-Joint Count (shoulders, elbows, wrists, MCPs, PIPs including thumb IP, knees), TJC(28) is Tender 28-Joint Count (shoulders, elbows, wrists, MCPs, PIPs including thumb IP, knees), PGA is Patient Global disease Activity (patient's self assessment of overall RA disease activity on a scale 1-10 where 10 is maximal activity), and EGA is Evaluator's Global disease Activity (evaluator's assessment of overall RA disease activity on a scale 1-10 where 10 is maximal activity). In some embodiments, a subject with an RA can have a CDAI that is equal to or greater than 5, 10, 15, or 20. In some embodiments, the subject has an active RA, and a subject with an active RA can have a CDAI that is equal to or greater than 10. A CDAI that is equal to or greater than 10 often indicates moderate or severe RA.
Active RA patients were recruited through the Central Pain in Rheumatoid Arthritis (CPIRA) study. The PBMC were collected from active RA patients at the time when they switched or started a new RA treatment and were also collected 12 weeks after the treatment started.
PBMC collected from 14 CPIRA subjects before they started either etanercept or adalimumab were analyzed (Table 1). Seven of the […] subjects were treated by etanercept.
The responsiveness to treatment was determined by the following definition.
CDAI decrease>=12 for those with baseline CDAI>22,
CDAI decrease>=6 for those with baseline CDAI>=10,
CDAI decrease>=1 for those with baseline CDAI<10.

[2] = etanercept non-responders, one value per subject: BW53, BW80, BW116
[3] = etanercept responders, one value per subject: BW39, BW56, BW82, BW110
[4] = adalimumab non-responders, one value per subject: BW34, BW83
[5] = adalimumab responders, one value per subject: BW32, BW57, BW85, BW89, BS137

| Substance | PTPN22 Drug/no-drug ratio ([1]; PBMC of etanercept non-responders collected before treatment, etanercept 250 ug/ml, one value per subject: BW53, BW80, BW116, BW34*) | PTPN22 Drug/no-drug ratio ([1]; PBMC of etanercept responders collected before treatment, etanercept 250 ug/ml, one value per subject: BW39, BW56, BW82, BW110) | ΔCDAI (active RA patients; [2]) | 2nd visit CDAI (active RA patients; [2]) | ΔCDAI (active RA patients; [3]) | 2nd visit CDAI (active RA patients; [3]) | number of treated subjects who did not respond (CDAI definition) (active RA patients) | number of treated subjects who responded (CDAI definition) (active RA patients) | PTPN22 Drug/no-drug ratio ([1]; PBMC of adalimumab non-responders collected before treatment, adalimumab 100 ug/ml, one value per subject: BW34, BW83) | PTPN22 Drug/no-drug ratio ([1]; PBMC of adalimumab responders collected before treatment, adalimumab 100 ug/ml, one value per subject: BW32, BW57, BW85, BW89, BS137) | ΔCDAI (active RA patients; [4]) | 2nd visit CDAI (active RA patients; [4]) | ΔCDAI (active RA patients; [5]) | 2nd visit CDAI (active RA patients; [5]) |
| --- | --- | --- | --- | --- | --- | --- | --- | --- | --- | --- | --- | --- | --- | --- |
| etanercept | 0.86 and 1.18 and 1.23 and 1.35 | 2.14 and 2.04 and 1.82 and 2.5 | 1.5 and −0.5 and 6 | 25.5 and 21.5 and 23 | 12.5 (2×) and 9 and 23 | 0 and 6.5 and 6 and 12 | three | Four | – | – | – | – | – | – |
| adalimumab | – | – | – | – | – | – | two | five | 1.17 and 0.93 | 1.82 and 1.77 and 1.97 and 2.37 and 1.67 | 4.8 and 1 | 24.2 and 13 | 15.2 and 10 and 21 and 23 and 13 | 0 and 9 and 25 and 34 and 18 |
